Laboratory results as given in patent US11576326B2, “Wheat with new alleles of Rht-B1” (Commonwealth Scientific and Industrial Research Organisation, priority 2012, dated 2023).

How the values were obtained:
[1] = system: barley endosperm half-grains; assay: α-Amylase production by endosperm half-grains incubated with GA3 (Ceralpha procedure); details: for α-Amylase at 42 h / α-Amylase at 72 h: GA3 (1 μM), 22° C.
Protocol: Endosperm half-grains were prepared and incubated with or without GA3 (1 μM) at 22° C. for 0, 42 or 72 h. To each sample, 1.5 mL of a solution of 10 mm CaCl2 was added, the half-grains were homogenised, and an aliquot of 1 mL was clarified by centrifugation (20,000 g for 5 min). The supernatant was analyzed for α-amylase activity using the Megazyme alpha-amylase (Ceralpha) procedure.
The production of α-amylase by endosperm half-grains of wild-type barley is dependent on the presence of an active GA. Therefore, monitoring α-amylase activity in the absence of an active GA provided a convenient measure of the extent of ‘basal’ GA signaling in the mutants. […] Among the overgrowth derivatives of Sln1d, the Sln1d.9 derivative was exceptional, accumulating very high levels of α-amylase at both 42 h and 72 h incubation, despite this line showing only a modest restoration of growth rate (Table 5).

[2] = system: barley seedlings (first leaf); assay: Maximal daily leaf elongation rate (LERmax) of the first leaf of barley seedlings, with GA3; assay type: in vivo
Text: The methods have been previously described (Chandler and Robertson, 1999). Curves were fitted to data points using a 4-parameter Hill equation.
The maximal daily rate of elongation (LERmax) achieved by the first leaf under standard conditions was a robust measure of GA responsiveness (Chandler and Robertson, 1999) and was therefore determined for all of the barley overgrowth lines and their parents (Table 5). […] Three overgrowth alleles (sln1m, sln1n and sln1s) were compared in both their original dwarfing genetic background as well as after back-crossing to the tall WT background. […] In a wild-type background, the overgrowth alleles tended to enhance growth rates.

With C=C1C[C@]23C[C@@]1(O)CC[C@H]2[C@@]12C=C[C@H](O)[C@@](C)(C(=O)O1)[C@H]2[C@@H]3C(=O)O [GA3] the “increase in α-amylase activity over basal levels” value ([1]; 72 h incubation with GA3, control lines WT, grd2b) was ~15 fold, the “α-Amylase at 42 h” value ([1]; line Him, genotype WT) was 9.81 ± 0.86 Ceralpha units/grain and the “α-Amylase at 42 h” value ([1]; line M463, genotype grd2b) was 7.20 ± 0.73 Ceralpha units/grain. For the same molecule, the “α-Amylase at 72 h” value ([1]; line Him, genotype WT) was 23.1 ± 2.8 Ceralpha units/grain, the “α-Amylase at 72 h” value ([1]; line M463, genotype grd2b) was 18.9 ± 1.4 Ceralpha units/grain and the LERmax ([2]; line Him (Himalaya), genotype WT) was 52.3 ± 0.1 mm · d^−1. For the same molecule, the LERmax ([2]; line M463, genotype grd2b) was 49.8 ± 0.8 mm · d^−1, the LERmax ([2]; line M640, genotype Sln1d) was 12.1 ± 0.3 mm · d^−1 and the LERmax ([2]; line M693, genotype gse1n) was 35.3 ± 1.2 mm · d^−1.
